Experimental data reported in the supplement of paper PMC10307832.

Tests used:
Assay in all cases: relative viability (nuclei count vs DMSO), 5 days (fraction); higher = more cells survive
201T = tested on: 201T
In short: (§1)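 Medians of duplicate plates are given as relative viability. That measure is the nuclei count in treated wells divided by the count in vehicle wells. Counts were taken on 4× images of lung cancer cell lines in 1536-well plates, 5 days after pin-tool dosing the day after seeding with one drug alone or a fixed anchor-drug dose plus five library-drug doses (not always all listed) in √10 steps.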

A-427 = tested on: A-427
In short: as §1

COR-L 105 = tested on: COR-L 105
In short: as §1

COR-L23 = tested on: COR-L23
In short: as §1

EKVX = tested on: EKVX
In short: as §1

HARA = tested on: HARA
In short: as §1

HCC-15 = tested on: HCC-15
In short: as §1

HCC-44 = tested on: HCC-44
In short: as §1

HCC-827 = tested on: HCC-827
In short: as §1

LK-2 = tested on: LK-2
In short: as §1

NCI-H1437 = tested on: NCI-H1437
In short: as §1

NCI-H1666 = tested on: NCI-H1666
In short: as §1

NCI-H1792 = tested on: NCI-H1792
In short: as §1

NCI-H1975 = tested on: NCI-H1975
In short: as §1

NCI-H23 = tested on: NCI-H23
In short: as §1

NCI-H520 = tested on: NCI-H520
In short: as §1

NCI-H596 = tested on: NCI-H596
In short: as §1

NCI-H650 = tested on: NCI-H650
In short: as §1

NCI-H838 = tested on: NCI-H838
In short: as §1

SK-MES-1 = tested on: SK-MES-1
In short: as §1

CC(C)Oc1cc(Nc2nc(N[C@@H](C)c3ccc(F)cn3)ncc2Cl)n[nH]1 [AZ23] + CS(=O)(=O)CCNCc1ccc(-c2ccc3ncnc(Nc4ccc(OCc5cccc(F)c5)c(Cl)c4)c3c2)o1 [Lapatinib] (partner 2 µM)
relative viability (201T; first compound 0.01 µM): 1.03
relative viability (201T; first compound 0.03162 µM): 1
relative viability (201T; first compound 0.3162 µM): 1.1
relative viability (A-427; first compound 0.01 µM): 1.24
relative viability (A-427; first compound 0.03162 µM): 1.02
relative viability (A-427; first compound 0.3162 µM): 1.03
relative viability (COR-L 105; first compound 0.01 µM): 0.35
relative viability (COR-L 105; first compound 0.03162 µM): 0.382
relative viability (COR-L 105; first compound 0.3162 µM): 0.373
relative viability (COR-L23; first compound 0.01 µM): 1.12
relative viability (COR-L23; first compound 0.03162 µM): 1.1
relative viability (COR-L23; first compound 0.3162 µM): 1
relative viability (EKVX; first compound 0.01 µM): 0.188
relative viability (EKVX; first compound 0.03162 µM): 0.207
relative viability (EKVX; first compound 0.3162 µM): 0.192
relative viability (HARA; first compound 0.01 µM): 0.862
relative viability (HARA; first compound 0.03162 µM): 0.708
relative viability (HARA; first compound 0.3162 µM): 0.584
relative viability (HCC-15; first compound 0.01 µM): 1.08
relative viability (HCC-15; first compound 0.03162 µM): 0.839
relative viability (HCC-15; first compound 0.3162 µM): 0.784
relative viability (HCC-44; first compound 0.01 µM): 1.01
relative viability (HCC-44; first compound 0.03162 µM): 1.21
relative viability (HCC-44; first compound 0.3162 µM): 1.09
relative viability (HCC-827; first compound 0.01 µM): 0.205
relative viability (HCC-827; first compound 0.03162 µM): 0.172
relative viability (HCC-827; first compound 0.3162 µM): 0.21
relative viability (LK-2; first compound 0.01 µM): 0.958
relative viability (LK-2; first compound 0.03162 µM): 1.3
relative viability (LK-2; first compound 0.3162 µM): 0.685
relative viability (NCI-H1437; first compound 0.01 µM): 0.729
relative viability (NCI-H1437; first compound 0.03162 µM): 0.975
relative viability (NCI-H1437; first compound 0.3162 µM): 0.957
relative viability (NCI-H1666; first compound 0.01 µM): 0.747
relative viability (NCI-H1666; first compound 0.03162 µM): 0.565
relative viability (NCI-H1666; first compound 0.3162 µM): 0.591
relative viability (NCI-H1792; first compound 0.01 µM): 1.17
relative viability (NCI-H1792; first compound 0.03162 µM): 1.13
relative viability (NCI-H1792; first compound 0.3162 µM): 0.995
relative viability (NCI-H1975; first compound 0.01 µM): 1.27
relative viability (NCI-H1975; first compound 0.03162 µM): 0.961
relative viability (NCI-H1975; first compound 0.3162 µM): 0.862
relative viability (NCI-H23; first compound 0.03162 µM): 1.23
relative viability (NCI-H23; first compound 0.3162 µM): 1.07
relative viability (NCI-H520; first compound 0.01 µM): 0.842
relative viability (NCI-H520; first compound 0.03162 µM): 0.964
relative viability (NCI-H520; first compound 0.3162 µM): 0.8
relative viability (NCI-H596; first compound 0.01 µM): 1.03
relative viability (NCI-H596; first compound 0.03162 µM): 1.11
relative viability (NCI-H596; first compound 0.3162 µM): 1.03
relative viability (NCI-H650; first compound 0.01 µM): 0.649
relative viability (NCI-H650; first compound 0.03162 µM): 1.19
relative viability (NCI-H650; first compound 0.3162 µM): 0.849
relative viability (NCI-H838; first compound 0.01 µM): 0.99
relative viability (NCI-H838; first compound 0.03162 µM): 1.06
relative viability (NCI-H838; first compound 0.3162 µM): 0.908
relative viability (SK-MES-1; first compound 0.01 µM): 0.492
relative viability (SK-MES-1; first compound 0.03162 µM): 0.484
relative viability (SK-MES-1; first compound 0.3162 µM): 0.491
